We go through 1 substance from patent US20140242093A1, “METHODS AND COMPOSITIONS FOR MODULATING THE INNATE IMMUNE RESPONSE AND/OR MYOGENESIS IN A MAMMALIAN SUBJECT” (FRED HUTCHINSON CANCER RESEARCH CENTER, priority 2011, published 2014).

The test system of series [1] is Cultured human muscle cells (54-1). Nature of the series: Conditioned media from lenti-DUX4-fl cells on lenti-GFP transduced cells, RT-PCR of IFIH1 and DEFB103A/B. It counts as cell-based. Here is the method:
It was determined that DEFB103A (SEQ ID NO:49) and DEFB103B (SEQ ID NO:107), each encoding the polypeptide DEFB103A/B set forth as SEQ ID NO:178, are both activated by lenti-DUX4-fl and not by lenti-DUX4-s or lenti-GFP. These represent transcripts from a duplicated beta-defensin 3 gene, which can function as a suppressor of inflammation. As a secreted protein, DEFB103A/B (SEQ ID NO:178) has the potential to suppress the innate immune response in cells infected with lenti-GFP. As an initial step toward testing this, the inventors transduced cells with lenti-DUX4-fl or nothing for 12 hrs, washed extensively and replaced the culture media, then after an additional 12 hrs transferred the conditioned media to cells infected 24 hrs earlier with lenti-GFP.
Cultured human muscle cells (54-1) were transduced with nothing (first lane panels A and B), lenti-DUX4-fl @ approximately MOI=10 (lane 2), lenti-DUX4-fl MOI ˜1 (lane 3), lenti-GFP MOI ˜10 (lane 4), lenti-GFP transduced cells exposed to conditioned media from lane 2 cells (lane 5), lenti-GFP transduced cells exposed to conditioned media from lane 3 cells (lane 6), lenti-GFP transduced cells exposed to media from lane 5 cells that was filtered through a 35 kD cut-off filter. The conditioned media from the lenti-DUX4 transduced cells suppresses the IFIH1 induction by lenti-GFP (Panel A).

Series [2] has as its system cultured human skeletal muscle cells. The following applies: cited from earlier work.
Series [3] deals with cultured control skeletal muscle. The series can be described thus: RT-PCR validation of microarray gene targets. The series is classed as cell-based, human. The following applies: FIG. 1. Here is the method:
RNA was collected from cultured control skeletal muscle either transduced with a DUX4-fl expressing lentivirus (+) or not transduced (−). RPL13A was used as an internal standard. Total RNA was treated with DNase using TURBO DNA-free kit (Ambion) according to manufacturer's protocol. One μg of DNase-treated RNA was reverse transcribed to first strand cDNA with SuperScript III and anchored oligo dT (Invitrogen) at 52° C. for 1 h. Residual RNA was digested with RNase H at 37° C. for 20 min. cDNA was used in various PCR and real-time PCR reactions with primers listed below.
The primers shown below were designed to span exon-exon junctions where possible. Primers from select genes were also used in real-time PCR reactions to examine endogenous expression of targets in FSHD versus control samples described separately.

“DUX4-fl: full-length DUX4 protein (SEQ ID NO:110), expressed from lentiviral or pCS2 vectors or in vitro translated”: in series [1] (RT-PCR), the “expression of DEFB103A/B” value is “induces expression of DEFB103A/B”. Also, the “activation of IFIH1 by the construct” value in series [1] (qRT-PCR, no conditioned medium) is recorded as “did not”. In addition, in series [2], the “toxicity of forced over-expression” value was “toxic to cells, inducing apoptotic cell death”. Besides, the “number of DUX4-fl regulated genes with differential expression validated by RT-PCR” value in series [3] stood at 15 genes.
